Experimental data: PubChem BioAssay (NCI)
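All cell lines were grown in 96-well plates and treated with compound for 48 hours. The concentration for full growth arrest is given as TGI.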

Experiments:
Experiment in all cases: NCI tumour cell line growth inhibition, 48 h
CAKI-1 renal = tested on: CAKI-1 renal
HT29 colon = tested on: HT29 colon
NCI-H226 lung = tested on: NCI-H226 lung
HCT-15 colon = tested on: HCT-15 colon
KM12 colon = tested on: KM12 colon
CCRF-CEM leukemia = tested on: CCRF-CEM leukemia
U251 CNS = tested on: U251 CNS
UO-31 renal = tested on: UO-31 renal
NCI-H522 lung = tested on: NCI-H522 lung
SNB-75 CNS = tested on: SNB-75 CNS
UACC-62 melanoma = tested on: UACC-62 melanoma
DU-145 prostate = tested on: DU-145 prostate
K-562 leukemia = tested on: K-562 leukemia
MALME-3M melanoma = tested on: MALME-3M melanoma
HL-60(TB) leukemia = tested on: HL-60(TB) leukemia
EKVX NSCLC = tested on: EKVX NSCLC
SN12C renal = tested on: SN12C renal
SF-295 CNS = tested on: SF-295 CNS
PC-3 prostate = tested on: PC-3 prostate
OVCAR-4 ovarian = tested on: OVCAR-4 ovarian
NCI/ADR-RES ovarian = tested on: NCI/ADR-RES ovarian
UACC-257 melanoma = tested on: UACC-257 melanoma
TK-10 renal = tested on: TK-10 renal
SW-620 colon = tested on: SW-620 colon
SK-MEL-2 melanoma = tested on: SK-MEL-2 melanoma
SK-OV-3 ovarian = tested on: SK-OV-3 ovarian
MDA-N = tested on: MDA-N
A498 renal = tested on: A498 renal
RXF 393 renal = tested on: RXF 393 renal
OVCAR-8 ovarian = tested on: OVCAR-8 ovarian
HS 578T breast = tested on: HS 578T breast
HCT-116 colon = tested on: HCT-116 colon
786-0 renal = tested on: 786-0 renal
LOX IMVI melanoma = tested on: LOX IMVI melanoma
NCI-H460 lung = tested on: NCI-H460 lung
IGROV1 ovarian = tested on: IGROV1 ovarian
ACHN renal = tested on: ACHN renal
HOP-92 NSCLC = tested on: HOP-92 NSCLC
MDA-MB-231 breast = tested on: MDA-MB-231 breast
NCI-H23 lung = tested on: NCI-H23 lung
HCC-2998 colon = tested on: HCC-2998 colon
T-47D breast = tested on: T-47D breast
MDA-MB-435 = tested on: MDA-MB-435
BT-549 breast = tested on: BT-549 breast
MOLT-4 leukemia = tested on: MOLT-4 leukemia
SF-539 CNS = tested on: SF-539 CNS
HOP-62 NSCLC = tested on: HOP-62 NSCLC
OVCAR-3 ovarian = tested on: OVCAR-3 ovarian
SK-MEL-28 melanoma = tested on: SK-MEL-28 melanoma
SF-268 CNS = tested on: SF-268 CNS
RPMI-8226 leukemia = tested on: RPMI-8226 leukemia
A549 NSCLC = tested on: A549 NSCLC
SK-MEL-5 melanoma = tested on: SK-MEL-5 melanoma
MCF7 breast = tested on: MCF7 breast
OVCAR-5 ovarian = tested on: OVCAR-5 ovarian
SNB-19 CNS = tested on: SNB-19 CNS
SR leukemia = tested on: SR leukemia
COLO 205 colon = tested on: COLO 205 colon
M14 melanoma = tested on: M14 melanoma

Structure (SMILES): CN(C)/C=N/S(=O)(=O)c1nn2c(C=O)c(-c3cc4ccccc4oc3=O)nc2s1
- TGI (CAKI-1 renal): 4.95 µM
- TGI (HT29 colon): 2.97 µM
- TGI (NCI-H226 lung): > 56.5 µM
- TGI (HCT-15 colon): 27.6 µM
- TGI (KM12 colon): > 49 µM
- TGI (CCRF-CEM leukemia): 7.33 µM
- TGI (U251 CNS): > 42.6 µM
- TGI (UO-31 renal): 4.84 µM
- TGI (NCI-H522 lung): 3.09 µM
- TGI (SNB-75 CNS): > 82.1 µM
- TGI (UACC-62 melanoma): 27.5 µM
- TGI (DU-145 prostate): > 36.6 µM
- TGI (K-562 leukemia): > 24.4 µM
- TGI (MALME-3M melanoma): 6.07 µM
- TGI (HL-60(TB) leukemia): 4.05 µM
- TGI (EKVX NSCLC): 43 µM
- TGI (SN12C renal): 24.5 µM
- TGI (SF-295 CNS): > 100 µM
- TGI (PC-3 prostate): > 48.5 µM
- TGI (OVCAR-4 ovarian): 28.3 µM
- TGI (NCI/ADR-RES ovarian): > 100 µM
- TGI (UACC-257 melanoma): 29.3 µM
- TGI (TK-10 renal): 14.8 µM
- TGI (SW-620 colon): > 29.4 µM
- TGI (SK-MEL-2 melanoma): 40.1 µM
- TGI (SK-OV-3 ovarian): > 100 µM
- TGI (MDA-N): 20.7 µM
- TGI (A498 renal): 55.3 µM
- TGI (RXF 393 renal): 9.97 µM
- TGI (OVCAR-8 ovarian): > 42 µM
- TGI (HS 578T breast): > 27 µM
- TGI (HCT-116 colon): 5.89 µM
- TGI (786-0 renal): 5.24 µM
- TGI (LOX IMVI melanoma): 15.4 µM
- TGI (NCI-H460 lung): > 88.1 µM
- TGI (IGROV1 ovarian): 25.1 µM
- TGI (ACHN renal): 5.9 µM
- TGI (HOP-92 NSCLC): 19.2 µM
- TGI (MDA-MB-231 breast): 32.3 µM
- TGI (NCI-H23 lung): 42.4 µM
- TGI (HCC-2998 colon): 48.5 µM
- TGI (T-47D breast): 18.6 µM
- TGI (MDA-MB-435): 62.4 µM
- TGI (BT-549 breast): 33.1 µM
- TGI (MOLT-4 leukemia): > 20.6 µM
- TGI (SF-539 CNS): 61 µM
- TGI (HOP-62 NSCLC): > 59.2 µM
- TGI (OVCAR-3 ovarian): 17.3 µM
- TGI (SK-MEL-28 melanoma): 12.1 µM
- TGI (SF-268 CNS): > 44.9 µM
- TGI (RPMI-8226 leukemia): 30.4 µM
- TGI (A549 NSCLC): > 63.5 µM
- TGI (SK-MEL-5 melanoma): 12 µM
- TGI (MCF7 breast): > 36.6 µM
- TGI (OVCAR-5 ovarian): > 84.3 µM
- TGI (SNB-19 CNS): > 100 µM
- TGI (SR leukemia): 36.5 µM

Structure (SMILES): O=C(c1ccccc1)n1[nH]c(=O)n(-c2ccc(Cl)cc2)c1=O
- TGI (CAKI-1 renal): > 100 µM
- TGI (HT29 colon): > 100 µM
- TGI (NCI-H226 lung): > 100 µM
- TGI (HCT-15 colon): > 100 µM
- TGI (KM12 colon): > 100 µM
- TGI (CCRF-CEM leukemia): > 100 µM
- TGI (U251 CNS): > 100 µM
- TGI (COLO 205 colon): > 100 µM
- TGI (UO-31 renal): > 100 µM
- TGI (SNB-75 CNS): > 100 µM
- TGI (UACC-62 melanoma): > 100 µM
- TGI (DU-145 prostate): > 100 µM
- TGI (K-562 leukemia): > 100 µM
- TGI (MALME-3M melanoma): > 100 µM
- TGI (HL-60(TB) leukemia): > 100 µM
- TGI (EKVX NSCLC): > 100 µM
- TGI (SN12C renal): > 100 µM
- TGI (SF-295 CNS): > 100 µM
- TGI (PC-3 prostate): > 100 µM
- TGI (OVCAR-4 ovarian): > 100 µM
- TGI (NCI/ADR-RES ovarian): > 100 µM
- TGI (UACC-257 melanoma): > 100 µM
- TGI (TK-10 renal): > 100 µM
- TGI (SW-620 colon): > 100 µM
- TGI (SK-MEL-2 melanoma): > 100 µM
- TGI (SK-OV-3 ovarian): > 100 µM
- TGI (MDA-N): > 100 µM
- TGI (RXF 393 renal): > 100 µM
- TGI (OVCAR-8 ovarian): > 100 µM
- TGI (HS 578T breast): > 100 µM
- TGI (HCT-116 colon): > 100 µM
- TGI (786-0 renal): > 100 µM
- TGI (LOX IMVI melanoma): > 100 µM
- TGI (NCI-H460 lung): > 100 µM
- TGI (IGROV1 ovarian): > 100 µM
- TGI (ACHN renal): > 100 µM
- TGI (MDA-MB-231 breast): > 100 µM
- TGI (M14 melanoma): > 100 µM
- TGI (NCI-H23 lung): > 100 µM
- TGI (HCC-2998 colon): > 100 µM
- TGI (T-47D breast): > 100 µM
- TGI (MDA-MB-435): > 100 µM
- TGI (BT-549 breast): > 100 µM
- TGI (MOLT-4 leukemia): > 100 µM
- TGI (HOP-62 NSCLC): > 100 µM
- TGI (OVCAR-3 ovarian): > 100 µM
- TGI (SK-MEL-28 melanoma): > 100 µM
- TGI (SF-268 CNS): > 100 µM
- TGI (RPMI-8226 leukemia): > 100 µM
- TGI (A549 NSCLC): > 100 µM
- TGI (SK-MEL-5 melanoma): > 100 µM
- TGI (MCF7 breast): > 100 µM
- TGI (OVCAR-5 ovarian): > 100 µM
- TGI (SNB-19 CNS): 83.3 µM
- TGI (SR leukemia): > 100 µM
